≈ marks a conversion by molar mass, not a printed value. Entries after “also recorded” stand apart in the source; their conditions may differ. Like-named read-outs stand apart in the source and are kept apart here.

Data set [1] deals with Dd2. Description: Drug-interaction study, fixed-ratio combinations, FIC / Combination Index / isobologram. Format: cell-based, Plasmodium falciparum. As to conditions: for Increase of activity on combining DES4 and quinine: DES4 plus quinine. As to the method: From the results obtained with individual drugs, a stock solution of 32 x IC50 of each drug was prepared and used in preparing a series of six combinations ([1]–[6]) containing 5:0, 4:1, 3:2, 2:3, 1:4 and 0:5 proportions volume:volume of Drug A versus Drug B respectively. Each of these formulations were then tested and their different inhibitory concentrations determined separately.
IC50 values obtained for the different drug mixtures were used to calculate the Fractional Inhibitory Concentration (FIC) for each drug as described previously. FIC-A for example measures how much the presence of Drug B affects the activity of Drug A in the mixture, and vis versa.
FIC−A=IC50−A(comb.)/IC50−A(alone)
FIC−B=IC50−B(comb.)/IC50−B(alone)
A graph was constructed with the axes representing the mean FIC of linear scales, with mean FIC-A on the x axis and FIC-B on the y axis. When the combination is additive, the isobole which is the line joining the points that represent all the (x, y) points is straight. Synergistic combinations give concave isoboles, and antagonistic combinations give convex isoboles.
CI values were therefore calculated separately for both the drugs present in combinations 2 through 5; combinations 1 and 6 containing Drug A and Drug B alone. In addition to analyzing the result obtained with each drug combination formula, an overall mean CI value for the four combinations was determined to conclude on the interaction patterns of the two drugs being tested. Synergy or antagonism was defined as a mean CI< or >1, respectively, and lack of interaction (also termed additivity) defined as CI= 1 [21].
IC50 values were used to calculate the Fractional Inhibitory Concentration (FIC) for each drug as described previously. FIC-A measures how much the presence of a Drug B affects the activity of Drug-A in the mixture. […] Statistical significance was defined as p<0.05. A graph was constructed with the axes representing the mean FIC of linear scales, with mean FIC-A on the x-axis and FIC-B on the y-axis. When the combination is additive, the isobole which is the line joining the points that represent all the (x, y) points is straight. Synergistic combinations give concave isoboles, and antagonistic combinations give convex isoboles.
The overall mean CI value for the four combinations formulae was finally determined and synergy or antagonism between the two drugs in combination, defined as a mean CI< or >1, respectively, lack of interaction or additivity defined as CI = 1 [21].

Data set [2] has as its system Dd2. Nature of the data set: Stage-specific activity: variation of IC50 with exposure time, sorbitol-synchronized ring stage culture. Particulars: Plasmodium falciparum. Type of data set: cell-based. An excerpt: As a preliminary study towards the understanding of the mechanisms of action of the active drugs, the stage-specific activity of the products was studied by investigation of the variation in IC50 values with exposure time.
Figure 2 Variation of IC50 against Dd2 with exposure time. […] The IC50 values presented were obtained from two distinct experiments run in duplicate each.

The test system of data set [3] is Dd2 (multidrug-resistant) strain of Plasmodium falciparum. Nature of the data set: Antiplasmodial screen, parasite lactate dehydrogenase (pLDH) assay, Dd2 strain. Format: cell-based. As to conditions: for Activity against Dd2 IC95 / Activity against Dd2 IC50: P. falciparum Dd2, pLDH assay; for IC50: Plasmodium falciparum. On the procedure:
(§1) The 3D7 (MRA-102), and Dd2 (MRA-615) strains were kindly donated by BEI-Resources (MR4, Manassas, VA, USA), and maintained in continuous culture, with back up stored in liquid nitrogen.
(§2) The laboratory strains of P. falciparum were grown and maintained in culture using the method of Trager and Jensen with some modifications. All the chemicals except Albumax II (Gibco; Invitrogen, USA), were ordered from Sigma-Aldrich Inc (Germany). The cultures were monitored and parasitemia assessed using both fluorescence (acridine orange) and normal light (Giemsa stain) microscopes.
(§3) The antiplasmodial screen was carried out in 96-well microtitration plates as described by Desjardins et al. with some modifications. The different drug stock solutions were prepared by predisolving the powder in DMSO (200 µL for a final volume of 10 mL stock solution) and subsequently with the culture medium. The parasitaemia was measured using the parasite lactate dehydrogenase (pLDH) assay as previously described.
(§4) Each product was tested in triplicate, in two to three separate experiments, giving a total of six to nine repeats per product and per concentration tested. The IC50 and CC50 values obtained from the replicates were pooled and expressed as geometric mean IC50 and standard deviation. The different means were compared among themselves by independent samples t-test.

The test system of data set [4] is 3D7 (chloroquine-susceptible) strain of Plasmodium falciparum. Nature of the data set: Antiplasmodial screen, parasite lactate dehydrogenase (pLDH) assay, 3D7 strain. Type of data set: cell-based. As to conditions: for Activity against 3D7 IC95 / Activity against 3D7 IC50: P. falciparum 3D7, pLDH assay; for IC50: Plasmodium falciparum. As to the method:
as §1, §2, §3, §4

Data set [5] deals with LLC-MK2 monkey kidney epithelial cells. Description: Cytotoxicity on LLC-MK2 cells. As to conditions: SI = CC50/IC50, LLC-MK2 vs Dd2. Type of data set: cell-based. On the procedure:
(§5) The cytotoxicity of the extracts and pure compounds were estimated on LLC-MK2 monkey kidney epithelial cells as previously described with some modifications. The cell line was ordered from the American Type Culture Collection (ATCC, Manassas, Virginia, USA) and maintained in continuous culture.
as §4
(§6) The selectivity index defined as SI = CC50/IC50 was equally considered for compounds with mild cytotoxicity with SI<10 for toxic products. Based on these cut-off values, all products isolated from D. edulis in the present study were non-toxic against the LLC-MK2 cell-line.

Data set [6] is described as follows: Cytotoxicity on LLC-MK2 cells. Type of data set: cell-based, monkey. Particulars: monkey, LLC-MK2 cells, read-out: Cytotoxicity against LLC-MK2 CC50. As to the method:
as §5, §4, §6

Setting [7] is: Dd2, synchronized ring stage, 24 hours exposure, read-out: IC50 against Dd2, exposure time 24 hours.
[8] abbreviates: Dd2, synchronized ring stage, 48 hours exposure, read-out: IC50 against Dd2, exposure time 48 hours.
Where [9] appears, read: DD2, P. falciparum Dd2, pLDH assay, read-out: Activity against Dd2 IC50.
Setting [10] is: 3D7, P. falciparum 3D7, pLDH assay, read-out: Activity against 3D7 IC50.
[11] abbreviates: 3D7, read-out: Activity against 3D7 IC50, P. falciparum 3D7, pLDH assay.
[12] abbreviates: DES4 combined with quinine, Dd2.

As for `C=C[C@H]1C[N@@]2CC[C@H]1C[C@H]2[C@H](O)c1ccnc2ccc(OC)cc12` [QN, Quinine sulphate, reference compound], the “Increase of activity on combining DES4 and quinine” value in data set [1] is reported as 6 fold. In addition, the IC50 in data set [2] (setting [7]) is 0.21 µg/mL; in data set [2] (setting [8]), 0.18 µg/mL; in data set [3] (setting [9]), 0.12 ± 0.01 µg/mL; in data set [4] (setting [10]), 0.13 ± 0.01 µg/mL. Besides, in data set [3], the “Activity against Dd2 IC95” value worked out at 0.38 ± 0.08 µg/mL. Moreover, the “Activity against 3D7 IC95” value in data set [4] was 0.48 ± 0.10 µg/mL.
Regarding `C[C@@H]1O[C@@H](Oc2c(-c3ccc(O)cc3)oc3cc(O)cc(O)c3c2=O)[C@H](O)[C@H](O)[C@H]1O` [DES2, Afzelin], the “Selectivity index/Dd2” value in data set [5] is on record as greater than 5. For the same compound, the CC50 in data set [6] is greater than 100 µg/mL. Further, in data set [3], the “Activity against Dd2 IC50” value is “inactive” and the “Activity against Dd2 IC95” value amounted to 35.03 ± 3.52 µg/mL. For the same compound, the IC50 in data set [3] (DD2, read-out: Activity against Dd2 IC50, P. falciparum Dd2, pLDH assay) was 19.3 ± 1.56 µg/mL (≈ 44.7 µM). Moreover, in data set [4], the “Activity against 3D7 IC95” value stood at 13.64 ± 0.48 µg/mL. The IC50 in data set [4] (setting [11]) was 4.59 ± 0.21 µg/mL (≈ 10.6 µM).
With `CC[C@H](CCC(C)C1CCC2C3CC=C4C[C@@H](O[C@@H]5O[C@H](CO)[C@@H](O)[C@H](O)[C@H]5O)CC[C@]4(C)C3CC[C@]12C)C(C)C` (stereo partly drawn) [DES5, sitosterol 3-O-β-D-glucopyranoside sterol], the “Selectivity index/Dd2” value in data set [5] is listed as greater than 18. For the same compound, the CC50 in data set [6] (LLC-MK2 monkey kidney epithelial cells) was greater than 100 µg/mL. Moreover, in data set [3], the “Activity against Dd2 IC50” value was 5.34 ± 0.98 µg/mL and the “Activity against Dd2 IC95” value was 21.35 ± 0.44 µg/mL. In addition, in data set [3] (setting [9]), the IC50 was less than 10 µg/mL. Moreover, in data set [4], the “Activity against 3D7 IC50” value worked out at 1.90 ± 0.22 µg/mL and the “Activity against 3D7 IC95” value turned out to be 4.38 ± 0.87 µg/mL. In addition, the “Activity against 3D7 IC50” value in data set [4] (listed as Sitosterol 3-O-β-D-glucopyranoside) is recorded as “below 10 µg/mL”.
Consider `CO[C@H]1O[C@@H]2O[C@@]3(C)CC[C@H]4[C@H](C)CC[C@@H]([C@H]1C)[C@@]24OO3` [ART, artemether, reference compound], for which, in data set [3], the “Activity against Dd2 IC95” value amounted to 0.12 ± 0.09 µg/mL. Further, the IC50 in data set [3] (setting [9]) is 0.03 ± 0.01 µg/mL (≈ 0.101 µM); in data set [4] (setting [10]), 0.02 ± 0.01 µg/mL (≈ 0.067 µM). Moreover, the “Activity against 3D7 IC95” value in data set [4] was found to be 0.08 ± 0.02 µg/mL.
As to `C[C@@H]1O[C@@H](Oc2c(-c3ccc(O)c(O)c3)oc3cc(O)cc(O)c3c2=O)[C@H](O)[C@H](O)[C@H]1O` [DES1, Quercitrin], in data set [5], the “Selectivity index/Dd2” value was greater than 44. For the same compound, the CC50 in data set [6] is greater than 100 µg/mL. Also, the IC50 in data set [2] (DD2, 24 h, read-out: IC50 against Dd2, exposure time 24 hours) was 1.41 µg/mL (≈ 3.14 µM). The IC50 in data set [2] (DD2, 48 h, read-out: IC50 against Dd2, exposure time 48 hours) is 2.19 µg/mL (≈ 4.88 µM). Besides, in data set [3], the “Activity against Dd2 IC50” value is on record as “below 10 µg/mL” and the “Activity against Dd2 IC95” value amounted to 23.82 ± 6.35 µg/mL. In data set [4], the “Activity against 3D7 IC50” value came out at 5.96 ± 0.51 µg/mL and the “Activity against 3D7 IC95” value came out at 18.53 ± 3.13 µg/mL. For the same compound, the IC50 in data set [4] (setting [11]) is less than 10 µg/mL.
As to `COC(=O)c1cc(O)c(O)c(O)c1` [DES4, methyl 3,4,5-trihydroxybenzoate], the “Selectivity index/Dd2” value in data set [5] is greater than 182. In addition, the CC50 in data set [6] was greater than 100 µg/mL. In addition, in data set [1] (DES4 combined with artemether), the “Combination Index, overall value” turned out to be 1.10 and the “Interaction pattern with artemether” value was “additivity; also recorded: only additive effects”. Moreover, the “Combination Index, Combination 2” value in data set [1] (DES4 combined with quinine, Combination 2 (4:1), Dd2) was found to be 1.05. Further, in data set [1] (setting [12]), the “Combination Index, mean value” worked out at 0.65 and the “Interaction pattern with quinine” value is given as “synergy; also recorded: synergistic interactions”. Moreover, the “Increase of activity on combining DES4 and quinine” value in data set [1] is listed as 3 fold. Moreover, the IC50 in data set [2] (setting [7]) came out at 6.32 µg/mL (≈ 34.3 µM). For the same compound, in data set [2] (setting [8]), the IC50 worked out at 0.56 µg/mL (≈ 3.04 µM). Further, the “Activity against Dd2 IC95” value in data set [3] was 5.89 ± 0.95 µg/mL. For the same compound, the “Activity against 3D7 IC95” value in data set [4] is 2.58 ± 2.04 µg/mL. In data set [4] (setting [10]), the IC50 amounted to 0.37 ± 0.07 µg/mL (≈ 2.01 µM).
For `O=c1c(O)c(-c2ccc(O)c(O)c2)oc2cc(O)cc(O)c12` [DES3, Quercetin], the “Selectivity index/Dd2” value in data set [5] was greater than 17. Also, the 50% cytotoxic concentration (CC50) in data set [6] is greater than 100 µg/mL. For the same compound, in data set [3], the “Activity against Dd2 IC50” value worked out at 5.91 ± 0.97 µg/mL and the “Activity against Dd2 IC95” value came out at 15.96 ± 4.79 µg/mL. Moreover, in data set [3] (setting [9]), the IC50 is less than 10 µg/mL. For the same compound, in data set [4], the “Activity against 3D7 IC50” value came out at 6.07 ± 0.34 µg/mL and the “Activity against 3D7 IC95” value is 15.19 ± 3.88 µg/mL. Moreover, the IC50 in data set [4] (setting [10]) was less than 10 µg/mL.

As a reminder, the IC50 is the concentration needed to halve the response being measured. What is called CC50 is the concentration that lowers cell viability or growth by half.

Source of the values: paper PMC3836662, “New Antimalarial Hits from Dacryodes edulis (Burseraceae) - Part I: Isolation, In Vitro Activity, In Silico “drug-likeness” and Pharmacokinetic Profiles” (PLoS ONE, 2013).
